Reference: patent US10307383B2, “Cosmetic composition for preventing or ameliorating hypersensitive skin comprising cedrol or derivatives thereof, or pharmaceutically acceptable salts thereof” (University of Seoul Industry Cooperation Foundation, priority 2017, dated 2019)
≈ marks a conversion by molar mass, not a printed value.

System: IL-17A expression
Assay: IL-17A inhibition assay in IL-17 luciferase-(LUCPorter) stable reporter cell line
Settings: for Inhibition of IL-17A expression (%) Experiment-1 / Inhibition of IL-17A expression (%) Experiment-2 / Inhibition of IL-17A expression (%) Experiment-3: 6 hours; for expression of IL-17A (luciferase units): control group 2,582 units; for inhibition at 10 µg/mL / inhibition at 100 µg/mL / inhibition at 1000 µg/mL / IC50: Homo sapiens; for inhibition at 10 µg/mL / inhibition at 100 µg/mL / inhibition at 1000 µg/mL: read-out: Average Inhibition (%); for IC50: read-out: IC50 to inhibit the IL-17A expression by 50%

| Structure (SMILES) | expression of IL-17A, % by the control (10 μg/ml) [% by the control] | Inhibition of IL-17A expression (%) Experiment-1 (10 μg/ml) [%] | Inhibition of IL-17A expression (%) Experiment-2 (10 μg/ml) [%] | Inhibition of IL-17A expression (%) Experiment-3 (10 μg/ml) [%] | expression of IL-17A (luciferase units) (10 μg/ml) | expression of IL-17A, % by the control (100 μg/ml) [% by the control] | Inhibition of IL-17A expression (%) Experiment-1 (100 μg/ml) [%] | Inhibition of IL-17A expression (%) Experiment-2 (100 μg/ml) [%] | Inhibition of IL-17A expression (%) Experiment-3 (100 μg/ml) [%] | expression of IL-17A (luciferase units) (100 μg/ml) | expression of IL-17A, % by the control (1,000 μg/ml) [% by the control] | Inhibition of IL-17A expression (%) Experiment-1 (1000 μg/ml) [%] | Inhibition of IL-17A expression (%) Experiment-2 (1000 μg/ml) [%] | Inhibition of IL-17A expression (%) Experiment-3 (1000 μg/ml) [%] | expression of IL-17A (luciferase units) (1,000 μg/ml) | inhibition at 10 µg/mL [%] | inhibition at 100 µg/mL [%] | inhibition at 1000 µg/mL [%] | IC50 [µg/mL] |
| --- | --- | --- | --- | --- | --- | --- | --- | --- | --- | --- | --- | --- | --- | --- | --- | --- | --- | --- | --- |
| C[C@@H]1CC[C@H]2C(C)(C)[C@H]3C[C@@]12CC1OC13C (stereo partly drawn) [cedrene epoxide, Cedrene epoxide] | 100 | 11 | 4 | 0 | 2,591±458 units | 88 | 14 | 16 | 12 | 2,267±806 units | 54 | 60 | 56 | 46 | 1,382±87 units | 5 | 14 | 54 | 942 (≈ 4.27 mM) |
| CO[C@]1(C)CC[C@@]23C[C@@H]1C(C)(C)[C@@H]2CC[C@H]3C [methyl cedryl ether, Methyl cedryl ether] | 96 | −6 | 4 | 4 | 2,479±136 units | 92 | −5 | 5 | 8 | 2,379±206 units | 74 | 48 | 18 | 26 | 1,921±239 units | 0.7 | 2.7 | 30.7 | 1130 (≈ 4.78 mM) |
| CC(=O)C1=C(C)[C@@H]2C[C@@]3(C1)[C@H](C)CC[C@H]3C2(C)C [methyl cedryl ketone, Methyl cedryl ketone] | 87 | 0 | 1 | 13 | 2,248±194 units | 75 | 12 | 15 | 25 | 1,930±111 units | 34 | 78 | 58 | 66 | 866±106 units | 4.7 | 17.3 | 67.3 | 841 (≈ 3.41 mM) |
